From patent publication US20160047819A1, “METHOD FOR DIAGNOSING VAGINAL INFECTIONS” (priority 2013, published 2016)

Tested on: bacterial vaginosis
Assay: Remission of bacterial vaginosis at V3 by Amsel's criteria and Gram stain Nugent score
Type: in vivo, human
Description: Also provided is a diagnostic kit for use characterizing at least one protein useful for identifying the status of a vaginal infection. The kit includes instructions for carrying out a method of diagnosing vaginal infection using mass spectrometry. The diagnostic method of the invention has been tested on vaginal fluids collected from women enrolled in a clinical study of 80 Belgian pre-menopausal, non-pregnant women, aged between 18 and 50 years were analyzed. At the screening visit (V1) diagnosis of health or BV was made using both Amsel's criteria and Gram stain Nugent scoring. Patients with Nugent score >3 and positive for at least 3 of 4 Amsel's criteria were considered positive for BV. According to this clinical evaluation, women were divided into 2 groups: healthy subjects (H), (n=41) and patients diagnosed for BV (n=39). Patients who were diagnosed for BV at the study visit V1 were included in a multicenter, double-blind, randomised, placebo-controlled study reported in U.S. Ser. No. 13/559,013 (EudraCT: 2009-011826-32), that was performed to compare the efficacy of different doses of rifaximin vaginal tablets versus placebo for the treatment of BV. These patients underwent a randomisation visit and were distributed into four treatment groups: • group A received 100 mg rifaximin vaginal tablet once daily for 5 days (n=10), • group B received 25 mg rifaximin vaginal tablet once daily for 5 days (n=10), • group C received 100 mg rifaximin vaginal tablet once daily for the first 2 days and placebo vaginal tablet for the remaining 3 days (n=9), and • group D received placebo vaginal tablet once daily for 5 days (n=10).
After 7 to 10 days from the end of the therapy a follow-up visit (V3) was performed. Remission was evaluated at V3 according to Amsel's criteria (<3) and Gram stain Nugent score ([…]).
(§1) Patients who were diagnosed for BV at the study visit V1 were included in a multicentre, double-blind, randomised, placebo-controlled study (EudraCT: 2009-011826-32), that was performed to compare the efficacy of different doses of rifaximin vaginal tablets versus placebo for the treatment of BV. The patients underwent a randomization visit and were distributed into 4 treatment groups: group A received 100 mg rifaximin vaginal tablet once daily for 5 days (n=10), group B received 25 mg rifaximin vaginal tablet once daily for 5 days (n=10), group C received 100 mg rifaximin vaginal tablet once daily for the first 2 days and placebo vaginal tablet for the remaining 3 days (n=9), group D received placebo vaginal tablet once daily for 5 days (n=10). Study medication was administered intra-vaginally at bedtime. After 7 to 10 days from the end of the therapy a follow-up visit (V3) was performed. Remission was evaluated at V3 according to Amsel's criteria (<3) and Gram stain Nugent score (≦3) (Table 1).
as §1, with “randomisation” for “randomization”

[1] = group A: 100 mg vaginal tablet once daily for 5 days (n=10)
[2] = group B: 25 mg vaginal tablet once daily for 5 days (n=10)
[3] = group C: 100 mg vaginal tablet once daily for 2 days, then placebo 3 days (n=9)

CO[C@H]1/C=C/O[C@@]2(C)Oc3c(C)c(O)c4c(O)c(c5c(nc6cc(C)ccn65)c4c3C2=O)NC(=O)/C(C)=C\C=C\[C@H](C)[C@H](O)[C@@H](C)[C@@H](O)[C@@H](C)[C@H](OC(C)=O)[C@@H]1C [rifaximin]
women in remission after treatment [1]: 2 women
women not in remission after treatment [1]: 8 women
women in remission after treatment [2]: 5 women
women not in remission after treatment [2]: 5 women
women in remission after treatment [3]: 4 women
women not in remission after treatment [3]: 5 women
women in remission (R), all treatment groups (of 39 BV-affected women after rifaximin/placebo treatment): 11 women
